According to PMC4025172 (Breast Cancer Research and Treatment, 2014):
Like-named read-outs stand apart in the source and are kept apart here. Marks after values point to notes of the source that are not given here.

Key:
[1] = assay type: in vivo, human; conditions: for AUC(0–24),C2: parameter not reliable; for AUC(0-t) / Cmax / concentration at -0.5 h / Tmax: serum, other: vaginal, 0.03 mg
[2] = cited from earlier work
nuclear ER = conditions: cited from earlier work
[3] = tested on: E3 receptor complex / E2 receptor complex; conditions: cited from earlier work
breast cancer = conditions: retrospective cohort study in Finland, postmenopausal patients; cited from earlier work
BC cells = conditions: depends on concentration and duration of action; cited from earlier work
[4] = cited from earlier work; remark: listed apart in the source
[5] = after 4 weeks of daily application
[6] = vaginal ring or tablets with E2, postmenopausal BC patients (no AI therapy)

Structure (SMILES): C[C@]12CC[C@@H]3c4ccc(O)cc4CC[C@H]3[C@@H]1C[C@@H](O)[C@@H]2O [E3, estriol]
- t max,C2 ([1]; Visit C2 (day 28), maximum): 8.0 h
- AUC(0–24),C2 ([1]; Visit C2 (day 28), maximum): 0.457 ng·h/mL
- t max,C2 ([1]; Visit C2 (day 28), minimum): 4.0 h
- C max,C2 ([1]; Visit C2 (day 28), minimum, LLOQ E3 10.00 pg/ml): <LLOQ
- AUC(0–24),C2 ([1]; Visit C2 (day 28), minimum): <LLOQ
- C max,E ([1]; Visit E (day 0), first application, maximum): 0.168 ng/mL
- AUC(0–24),E ([1]; Visit E (day 0), maximum): 0.378 ng·h/mL
- t max,E ([1]; Visit E (day 0), maximum): 3.1 h
- AUC(0–24),E ([1]; Visit E (day 0), minimum): <LLOQ
- t max,E ([1]; Visit E (day 0), minimum): 2.0 h
- C max,E ([1]; Visit E (day 0), minimum, LLOQ E3 10.00 pg/ml): <LLOQ
- women with slightly increased serum E3 ([1]; after 4 weeks): 8 women
- patients without detectable increase of E3 [1, 5]: 50%
- women whose highest detected E3 level was below 20 pg/ml [1, 5]: 25%
- women with transient increase in serum E3 ([1]; after the first application (visit E, day 0)): 15 of 16
- trough serum E3 levels ([1]; all visits, all except two subjects, LLOQ 10.00 pg/ml): below LLOQ
- AUC(0-t) ([1]; female, human, AUC(0–24),C2, Visit C2 (day 28), mean, n=15, not reliable due to late metabolism and insufficient testing points): 0.131 ng·h/mL
- AUC(0-t) ([1]; female, human, AUC(0–24),E, Visit E (day 0), GeoMean): 0.154 ng·h/mL
- AUC(0-t) ([1]; female, human, AUC(0–24),E, Visit E (day 0), mean, n=16): 0.212 ng·h/mL
- AUC(0-t) ([1]; female, human, AUC(0–24),E, Visit E (day 0), median): 0.241 ng·h/mL
- Cmax ([1]; female, human, C max,C2, Visit C2 (day 28), GeoMean): 0.011 ng/mL
- Cmax ([1]; female, human, C max,C2, Visit C2 (day 28), mean, n=16): 0.0158 ng/mL
- Cmax ([1]; female, human, C max,C2, Visit C2 (day 28), median): 0.0091 ng/mL
- Cmax ([1]; female, human, C max,E, Visit E (day 0), GeoMean): 0.0882 ng/mL
- Cmax ([1]; female, human, C max,E, Visit E (day 0), mean, n=16): 0.104 ng/mL
- Cmax ([1]; female, human, C max,E, Visit E (day 0), median): 0.11 ng/mL
- concentration at -0.5 h ([1]; female, human, E3 baseline and trough, maximum, visit C1 (week 2)): 0.0492 ng/mL
- concentration at -0.5 h ([1]; female, human, E3 baseline and trough, maximum, visit C2 (week 4)): 0.0145 ng/mL
- concentration at -0.5 h ([1]; female, human, serum estriol (E3) concentration, Visit C2 (day 28), maximum, −0.5 h (pre-dose)): 0.0145 ng/mL
- concentration at -0.5 h ([1]; female, human, serum estriol (E3) concentration, Visit C2 (day 28), mean, −0.5 h (pre-dose)): 0.00091 ng/mL
- concentration at -0.5 h ([1]; female, human, serum estriol (E3) concentration, Visit C2 (day 28), median, −0.5 h (pre-dose)): 0 ng/mL
- concentration at -0.5 h ([1]; female, human, serum estriol (E3) concentration, Visit C2 (day 28), minimum, −0.5 h (pre-dose)): 0 ng/mL
- concentration at -0.5 h ([1]; female, human, serum estriol (E3) concentration, Visit E (day 0), maximum, −0.5 h (pre-dose)): 0 ng/mL
- concentration at -0.5 h ([1]; female, human, serum estriol (E3) concentration, Visit E (day 0), mean, −0.5 h (pre-dose)): 0 ng/mL
- concentration at -0.5 h ([1]; female, human, serum estriol (E3) concentration, Visit E (day 0), median, −0.5 h (pre-dose)): 0 ng/mL
- concentration at -0.5 h ([1]; female, human, serum estriol (E3) concentration, Visit E (day 0), minimum, −0.5 h (pre-dose)): 0 ng/mL
- Tmax ([1]; female, human, t max,C2, Visit C2 (day 28), mean, n=8): 7.2 h
- Tmax ([1]; female, human, t max,C2, Visit C2 (day 28), median): 7.9 h
- Tmax ([1]; female, human, t max,E, Visit E (day 0), mean, n=15): 2.5 h
- Tmax ([1]; female, human, t max,E, Visit E (day 0), median): 2.2 h
- exposure (AUC0–24) at end of initial therapy compared with study entry ([1]; human, in vivo): significantly lower
- concentration at -0.5 h ([1]; human, trough E3 serum concentration, one subject, visit C1): 0.0223 ng/mL
- E3 baseline and trough ([1]; maximum, visit C1 (week 2)): 49.20 pg/mL
- E3 baseline and trough ([1]; maximum, visit C2 (week 4)): 14.50 pg/mL
- E3 baseline and trough ([1]; maximum, visit C3 (week 8)): 0.00 pg/mL
- E3 baseline and trough ([1]; maximum, visit C4 (week 12)): 0.00 pg/mL
- E3 baseline and trough ([1]; maximum, visit E (day 0, baseline)): 0.00 pg/mL
- E3 baseline and trough ([1]; mean (SD), visit C1 (week 2), n=14): 5.11 (14.01)^a pg/ml
- E3 baseline and trough ([1]; mean (SD), visit C2 (week 4)): 0.91(3.63) pg/ml
- E3 baseline and trough ([1]; mean (SD), visit C3 (week 8)): 0.00 pg/mL
- E3 baseline and trough ([1]; mean (SD), visit C4 (week 12)): 0.00 pg/mL
- E3 baseline and trough ([1]; mean (SD), visit E (day 0, baseline)): 0.00 pg/mL
- E3 baseline and trough ([1]; minimum, visit C1 (week 2)): 0.00 pg/mL
- E3 baseline and trough ([1]; minimum, visit C2 (week 4)): 0.00 pg/mL
- E3 baseline and trough ([1]; minimum, visit C3 (week 8)): 0.00 pg/mL
- E3 baseline and trough ([1]; minimum, visit C4 (week 12)): 0.00 pg/mL
- E3 baseline and trough ([1]; minimum, visit E (day 0, baseline)): 0.00 pg/mL
- C max at visit C2 compared to visit E ([1]; p < 0.0001): significantly lower
- subjects without any quantifiable concentration of E3 ([1]; visit C2 (day 28)): half
- time of serum E3 increase post-insertion ([1]; visit C2 (day 28)): 6 to 8 h
- time of C max post-insertion ([1]; visit E (day 0), first application): 2 to 3 h
- serum E2 or E3 ([2]; vaginal 0.25 mg E3 twice weekly, 12 weeks, no PK values determined): no increase
- serum levels of E3 ([2]; vaginal application of conventional 0.50 mg dose of E3, ref [8]–[39]): increased
- affinity to the nuclear ER as compared to E2 (nuclear ER): 10 times lower
- nuclear retention time of the receptor complex [3]: < 6 h
- association with risk of BC (breast cancer): neither the use of vaginal E2 and E3 preparations nor oral E3 were associated with a risk of BC
- effect on BC cells in vitro (BC cells): can stimulate
- metabolism into E1 or E2 ([4]; E3 is an end product of estrogen metabolism): cannot be transformed back
- metabolic clearance [4]: rapid
- vaginal absorption as the vaginal epithelium matures ([4]; within a few days to weeks after start of vaginal treatment): decreases

Structure (SMILES): C[C@]12CC[C@@H]3c4ccc(O)cc4CC[C@H]3[C@@H]1CC[C@@H]2O [E2, estradiol]
- serum levels of E2 ([2]; vaginal administration of any dose of E2 in AI users, ref [3]–[14], [15]–[18]): increases
- effect on vaginal atrophy [2, 6]: efficiently relieved vaginal atrophy
- serum levels of E2 and E1 [2, 6]: temporarily raised
- nuclear retention time of the receptor complex [3]: > 12 h
- effect on BC cells in vitro (BC cells): can stimulate
